Data taken from patent publication US20260083704A1, “LXR MODULATORS WITH BICYCLIC CORE MOIETY FOR TREATING DYSLIPIDEMIAS” (OrsoBio, Inc., priority 2022, published 2026).

Legend:
LXRβ = biological target: T1, LXRβ (Homo sapiens, UniProt P55055); experiment: LXR Gal4 reporter transient transfection assay (mammalian two-hybrid, HEK293), LXRβ; assay type: cell-based; set-up: LXRβ (amino acids 156-461); expressed in transfected cells; host or cells: HEK293; details: full length (FL) LXRβ, HEK293; read-out: FL-M2H Gal4β
T1 sequence (P55055 1-460): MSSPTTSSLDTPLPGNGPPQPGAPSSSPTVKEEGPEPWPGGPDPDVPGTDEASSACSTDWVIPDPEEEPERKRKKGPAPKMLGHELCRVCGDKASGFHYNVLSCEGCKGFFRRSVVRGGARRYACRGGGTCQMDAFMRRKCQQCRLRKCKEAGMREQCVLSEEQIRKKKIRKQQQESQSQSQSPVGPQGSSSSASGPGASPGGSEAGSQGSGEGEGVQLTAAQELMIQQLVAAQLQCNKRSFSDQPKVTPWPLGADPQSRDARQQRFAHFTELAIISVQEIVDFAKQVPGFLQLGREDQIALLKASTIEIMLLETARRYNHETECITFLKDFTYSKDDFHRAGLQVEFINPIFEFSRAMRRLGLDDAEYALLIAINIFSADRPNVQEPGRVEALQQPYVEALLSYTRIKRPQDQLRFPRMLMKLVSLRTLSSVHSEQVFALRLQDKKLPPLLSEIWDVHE
Summary of the method: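 HEK293 cells transiently co-transfected with full-length or LBD LXRα/LXRβ fused to NFkB activation domain, GAL4-DBD-fused SRC1 or NCoR cofactor domain, GAL4-responsive firefly luciferase reporter and Renilla control. Compound added 4 h post-transfection (≤0.2% DMSO), incubated 16 h; firefly and Renilla luminescence read sequentially.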

[1] = Short term HFD mouse model: plasma and liver exposure; assay type: in vivo; details: HFD mice, 4 h after final dose
Procedure: The in vivo transcriptional regulation of several LXR target genes by LXR modulators was assessed in mice.
For this, C57BL/6J were purchased from Elevage Janvier (Rennes, France) at the age of 8 weeks. After an acclimation period of two weeks, animals were prefed on a high fat diet (HFD) (Ssniff Spezialdiäten GmbH, Germany, Surwit EF D12330 mod, Cat. No. E15771-34), with 60 kcal % from fat plus 1% (w/w) extra cholesterol (Sigma-Aldrich, St. Louis, MO) for 5 days. Animals were maintained on this diet during treatment with LXR modulators. The test compounds were formulated in 0.5% hydroxypropylmethylcellulose (HPMC) and administered in three doses (from 1.5 to 20 mg/kg each) by oral gavage according to the following schedule: on day one, animals received treatment in the morning and the evening (ca. 17:00), on day two animals received the final treatment in the morning after a 4 h fast and were sacrificed 4 h thereafter. Animal work was conducted according to the national guidelines for animal care in Germany.
Upon termination, liver was collected, dipped in ice cold PBS for 30 seconds and cut into appropriate pieces. Pieces were snap frozen in liquid nitrogen and stored at −80° C. For the clinical chemistry analysis from plasma, alanine aminotransferase (ALT, IU/mL), cholesterol (CHOL, mg/dL) and triglycerides (TG, mg/dL) were determined using a fully-automated bench top analyzer (Respons®910, DiaSys Greiner GmbH, Flacht, Germany) with system kits provided by the manufacturer.

LXRα = biological target: T2, LXRα (Homo sapiens, UniProt Q13133); experiment: LXR Gal4 reporter transient transfection assay (mammalian two-hybrid, HEK293), LXRα; assay type: cell-based; set-up: expressed in transfected cells; host or cells: HEK293; details: full length (FL) LXRα, HEK293; read-out: FL-M2H Gal4α
T2 sequence (Q13133 1-447): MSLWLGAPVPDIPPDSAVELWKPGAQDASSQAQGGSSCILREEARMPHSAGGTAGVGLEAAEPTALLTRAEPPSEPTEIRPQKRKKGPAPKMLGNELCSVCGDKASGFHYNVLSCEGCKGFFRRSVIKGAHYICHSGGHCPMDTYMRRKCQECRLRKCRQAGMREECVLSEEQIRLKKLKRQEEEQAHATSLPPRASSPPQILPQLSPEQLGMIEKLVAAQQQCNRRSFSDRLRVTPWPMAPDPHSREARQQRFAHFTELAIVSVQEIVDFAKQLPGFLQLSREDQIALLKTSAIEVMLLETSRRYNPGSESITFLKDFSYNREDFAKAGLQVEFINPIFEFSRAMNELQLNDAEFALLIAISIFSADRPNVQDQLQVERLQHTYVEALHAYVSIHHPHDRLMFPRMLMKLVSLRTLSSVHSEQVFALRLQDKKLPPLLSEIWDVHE
Procedure: LXRα and LXRβ activity status was determined via detection of interaction with coactivator and corepressor proteins in mammalian two-hybrid experiments (M2H). For this, via transient transfection the full length (FL) proteins of LXRα (amino acids 1-447; NP005684; SEQ ID NO:1) or LXRβ-(amino acids 1-461; NP009052; SEQ ID NO:2) or the ligand-binding domains (LBD) of LXRα (amino acids 155-447 SEQ ID NO:3) or LXRβ (amino acids 156-461; SEQ ID NO:4) were expressed from pCMV-AD (Stratagene) as fusions to the transcriptional activation domain of NFkB. As cofactors, domains of either the steroid receptor coactivator 1 (SRC1; amino acids 552-887; SEQ ID NO:5) or of the corepressor NCoR (amino acids 1906-2312; NP006302; SEQ ID NO:6) were expressed as fusions to the DNA binding domain of the yeast transcription factor GAL4 (from pCMV-BD; Stratagene). Interaction was monitored via activation of a coexpressed Firefly Luciferase Reporter gene under control of a promoter containing repetitive GAL4 response elements (vector pFRLuc; Stratagene). Transfection efficiency was controlled via cotransfection of constitutively active pRL-CMV Renilla reniformis luciferase reporter (Promega). HEK293 cells were grown in minimum essential medium (MEM) with 2 mM L-glutamine and Earle's balanced salt solution supplemented with 8.3% fetal bovine serum, 0.1 mM non-essential amino acids, 1 mM sodium pyruvate, at 37° C. in 5% CO2. 3.5×10^4 cells/well were plated in 96-well cell culture plates in growth medium supplemented with 8.3% fetal bovine serum for 16-20 h to ˜90% confluency. For transfection, medium was taken off and LXR and cofactor expressing plasmids as well as the reporter plasmids are added in 30 μL OPTIMEM/well including polyethylene-imine (PEI) as vehicle. Typical amounts of plasmids transfected/well: pCMV-AD-LXR (5 ng), pCMV-BD-cofactor (5 ng), pFR-Luc (100 ng), pRL-CMV (0.5 ng). Compound stocks were prepared in DMSO, prediluted in MEM to a total volume of 120 μL, and added 4 h after addition of the transfection mixture (final vehicle concentration not exceeding 0.2%). Cells were incubated for additional 16 h, lysed for 10 min in 1×Passive Lysis Buffer (Promega) and Firefly and Renilla luciferase activities were measured sequentially in the same cell extract using buffers containing D-luciferine and coelenterazine, respectively. Measurements of luminescence were done in a BMG-luminometer.
The potencies of Compound 21/3 and its analog, Compound pre-6/3, against LXRα and LXRβ were evaluated in biochemical binding assays, cellular mammalian two-hybrid (M2H) interaction assays evaluating nuclear receptor co-repressor (NCOR) recruitment, and cellular reporter assays evaluating transcriptional activity (Table 5).

[2] = three oral doses of 20 mg/kg over two days
[3] = three oral doses of 10 mg/kg over two days

SMILES	EC50 (LXRβ)	liver exposure 4 h [1, 2]	liver/plasma ratio 4 h [1, 2]	plasma exposure 4 h [1, 2]	EC50 (LXRα)	liver exposure 4 h [1, 3]	liver/plasma ratio 4 h [1, 3]	plasma exposure 4 h [1, 3]
N#Cc1sccc1-c1c(-c2cccc(-c3ccc(C(=O)O)cc3Cl)c2)n(S(=O)(=O)c2ccc(C(F)F)cc2)c2ccc(F)cc12 [11/17]	< 0.1 µM	D (>10 μM)	C (30 to ≤100)	C (100 nM to <300 nM)	< 0.1 µM			
N#Cc1cccc(C#N)c1-c1c(-c2cccc([C@H]3CC[C@H](C(=O)O)CC3)c2)n(S(=O)(=O)c2ccc(C(F)F)cc2)c2ccc(F)cc12 [11/62]	< 0.1 µM				< 0.1 µM	C (1 μM to ≤10 μM)	B (5 to ≤30)	C (100 nM to <300 nM)
CS(=O)(=O)NC(=O)c1ccc(-c2cccc(-c3c(-c4c(C#N)cccc4C#N)c4cc(F)ccc4n3S(=O)(=O)c3ccc(C(F)F)cc3)c2)c(Cl)c1 [32/5]	< 0.1 µM				< 0.1 µM	B (300 nM to ≤1 μM)	B (5 to ≤30)	D (<100 nM)
